Results reported in publication PMC11882969 (Nature Communications, 2025).
Several values for one entry are separate records, joined by “and”; a condition that tells them apart may be missing. Equal values may be shown once.

Legend:
[1] = biological target: panel of 320 non-olfactory GPCRs (Homo sapiens, UniProt P47898); type: cell-based
[2] = biological target: panel of 320 non-olfactory GPCRs (Homo sapiens, UniProt P16473); type: cell-based
[3] = biological target: panel of 320 non-olfactory GPCRs (Homo sapiens, UniProt P48039); type: cell-based
[4] = biological target: panel of 320 non-olfactory GPCRs (Homo sapiens, UniProt P43220); type: cell-based
[5] = biological target: panel of 320 non-olfactory GPCRs (Homo sapiens, UniProt Q9HC97); type: cell-based
[6] = biological target: panel of 320 non-olfactory GPCRs (Homo sapiens, UniProt P21918); type: cell-based
[7] = biological target: panel of 320 non-olfactory GPCRs (Homo sapiens, UniProt O15552); type: cell-based
[8] = biological target: panel of 320 non-olfactory GPCRs (Homo sapiens, UniProt P35408); type: cell-based
[9] = biological target: panel of 320 non-olfactory GPCRs (Homo sapiens, UniProt Q96P67); type: cell-based
[10] = biological target: panel of 320 non-olfactory GPCRs (Homo sapiens, UniProt Q8IYL9); type: cell-based
[11] = biological target: panel of 320 non-olfactory GPCRs (Homo sapiens, UniProt Q9UNW8); type: cell-based
[12] = biological target: panel of 320 non-olfactory GPCRs (Homo sapiens, UniProt P30518); type: cell-based
[13] = biological target: panel of 320 non-olfactory GPCRs (Homo sapiens, UniProt P30411); type: cell-based
[14] = biological target: panel of 320 non-olfactory GPCRs (Homo sapiens, UniProt Q8IZF2); type: cell-based
[15] = biological target: panel of 320 non-olfactory GPCRs (Homo sapiens, UniProt P47775); type: cell-based
[16] = biological target: panel of 320 non-olfactory GPCRs (Homo sapiens, UniProt P41594); type: cell-based
[17] = biological target: panel of 320 non-olfactory GPCRs (Homo sapiens, UniProt Q9NYM4); type: cell-based
[18] = biological target: panel of 320 non-olfactory GPCRs (Homo sapiens, UniProt Q8IZF3); type: cell-based
[19] = biological target: panel of 320 non-olfactory GPCRs (Homo sapiens, UniProt O15218); type: cell-based
[20] = biological target: panel of 320 non-olfactory GPCRs (Homo sapiens, UniProt P47901); type: cell-based
[21] = tested on: panel of 320 non-olfactory GPCRs; type: cell-based, human
[22] = biological target: panel of 320 non-olfactory GPCRs (Homo sapiens, UniProt P46093); type: cell-based
[23] = biological target: panel of 320 non-olfactory GPCRs (Homo sapiens, UniProt Q96RI0); type: cell-based
[24] = biological target: panel of 320 non-olfactory GPCRs (Homo sapiens, UniProt P41597); type: cell-based
[25] = biological target: panel of 320 non-olfactory GPCRs (Homo sapiens, UniProt P41595); type: cell-based
[26] = biological target: panel of 320 non-olfactory GPCRs (Homo sapiens, UniProt Q9NS75); type: cell-based
[27] = biological target: panel of 320 non-olfactory GPCRs (Homo sapiens, UniProt P46089); type: cell-based
[28] = biological target: panel of 320 non-olfactory GPCRs (Homo sapiens, UniProt P30989); type: cell-based
[29] = biological target: panel of 320 non-olfactory GPCRs (Homo sapiens, UniProt Q16538); type: cell-based
[30] = biological target: panel of 320 non-olfactory GPCRs (Homo sapiens, UniProt Q9BZJ8); type: cell-based
[31] = biological target: panel of 320 non-olfactory GPCRs (Homo sapiens, UniProt P46095); type: cell-based
[32] = biological target: panel of 320 non-olfactory GPCRs (Homo sapiens, UniProt Q8N6U8); type: cell-based
[33] = biological target: panel of 320 non-olfactory GPCRs (Homo sapiens, UniProt P08172); type: cell-based
[34] = biological target: panel of 320 non-olfactory GPCRs (Homo sapiens, UniProt P41968); type: cell-based
[35] = biological target: panel of 320 non-olfactory GPCRs (Homo sapiens, UniProt Q96RI9); type: cell-based
[36] = biological target: panel of 320 non-olfactory GPCRs (Homo sapiens, UniProt Q9NZD1); type: cell-based
[37] = biological target: panel of 320 non-olfactory GPCRs (Homo sapiens, UniProt Q86Y34); type: cell-based

Chain of panel of 320 non-olfactory GPCRs (Homo sapiens, UniProt P43220) (P43220 24-463): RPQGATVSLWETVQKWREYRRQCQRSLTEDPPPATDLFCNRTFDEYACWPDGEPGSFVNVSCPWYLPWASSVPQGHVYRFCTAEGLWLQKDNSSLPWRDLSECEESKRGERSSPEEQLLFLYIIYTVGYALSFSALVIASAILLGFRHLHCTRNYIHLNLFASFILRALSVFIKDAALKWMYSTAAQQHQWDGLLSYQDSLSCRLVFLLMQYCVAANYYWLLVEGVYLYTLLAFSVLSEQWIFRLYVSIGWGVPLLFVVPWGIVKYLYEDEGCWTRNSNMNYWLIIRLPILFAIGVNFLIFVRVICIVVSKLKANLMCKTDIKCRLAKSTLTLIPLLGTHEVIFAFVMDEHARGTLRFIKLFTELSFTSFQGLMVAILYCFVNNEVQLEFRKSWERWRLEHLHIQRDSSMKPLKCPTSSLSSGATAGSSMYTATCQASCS
Chain of panel of 320 non-olfactory GPCRs (Homo sapiens, UniProt P16473) (P16473 21-764): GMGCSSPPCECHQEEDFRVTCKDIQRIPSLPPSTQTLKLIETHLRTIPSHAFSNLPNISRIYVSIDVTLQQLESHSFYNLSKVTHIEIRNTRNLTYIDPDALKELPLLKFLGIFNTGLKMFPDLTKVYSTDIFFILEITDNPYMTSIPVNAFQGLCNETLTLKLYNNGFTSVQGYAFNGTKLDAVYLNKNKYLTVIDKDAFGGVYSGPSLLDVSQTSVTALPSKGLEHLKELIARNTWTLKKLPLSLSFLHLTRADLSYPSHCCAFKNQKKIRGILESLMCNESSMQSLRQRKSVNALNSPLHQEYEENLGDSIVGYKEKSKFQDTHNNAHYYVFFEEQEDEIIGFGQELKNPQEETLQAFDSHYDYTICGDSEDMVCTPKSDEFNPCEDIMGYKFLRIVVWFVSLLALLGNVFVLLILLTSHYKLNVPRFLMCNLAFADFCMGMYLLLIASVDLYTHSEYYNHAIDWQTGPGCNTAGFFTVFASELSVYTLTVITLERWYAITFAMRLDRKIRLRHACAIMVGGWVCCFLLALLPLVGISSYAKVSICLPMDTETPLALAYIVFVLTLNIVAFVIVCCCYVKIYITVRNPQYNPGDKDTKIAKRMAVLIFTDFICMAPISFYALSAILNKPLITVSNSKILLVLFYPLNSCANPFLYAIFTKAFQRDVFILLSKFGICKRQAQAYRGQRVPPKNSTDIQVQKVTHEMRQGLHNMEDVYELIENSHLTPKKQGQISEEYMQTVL
Chain of panel of 320 non-olfactory GPCRs (Homo sapiens, UniProt Q9NYM4) (Q9NYM4 17-423): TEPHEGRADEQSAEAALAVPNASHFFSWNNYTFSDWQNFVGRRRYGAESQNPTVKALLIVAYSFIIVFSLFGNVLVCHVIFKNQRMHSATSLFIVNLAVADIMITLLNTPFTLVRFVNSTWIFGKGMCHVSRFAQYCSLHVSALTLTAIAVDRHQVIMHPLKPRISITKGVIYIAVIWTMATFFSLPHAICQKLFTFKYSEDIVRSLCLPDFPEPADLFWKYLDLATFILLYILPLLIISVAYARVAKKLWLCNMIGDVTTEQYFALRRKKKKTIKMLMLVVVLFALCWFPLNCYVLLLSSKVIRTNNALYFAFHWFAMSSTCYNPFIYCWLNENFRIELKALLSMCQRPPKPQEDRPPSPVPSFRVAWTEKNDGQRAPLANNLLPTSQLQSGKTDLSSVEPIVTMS
Chain of panel of 320 non-olfactory GPCRs (Homo sapiens, UniProt P47775) (P47775 whole entry): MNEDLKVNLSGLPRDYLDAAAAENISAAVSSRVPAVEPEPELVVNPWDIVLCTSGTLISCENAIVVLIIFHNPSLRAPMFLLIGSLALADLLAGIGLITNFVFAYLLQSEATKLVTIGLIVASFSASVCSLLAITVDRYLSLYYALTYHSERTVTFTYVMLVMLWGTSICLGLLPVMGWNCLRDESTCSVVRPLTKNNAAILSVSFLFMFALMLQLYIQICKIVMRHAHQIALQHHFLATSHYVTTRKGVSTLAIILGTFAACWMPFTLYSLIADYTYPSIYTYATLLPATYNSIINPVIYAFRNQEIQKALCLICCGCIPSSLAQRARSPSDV
Chain of panel of 320 non-olfactory GPCRs (Homo sapiens, UniProt Q96RI0) (Q96RI0 18-385): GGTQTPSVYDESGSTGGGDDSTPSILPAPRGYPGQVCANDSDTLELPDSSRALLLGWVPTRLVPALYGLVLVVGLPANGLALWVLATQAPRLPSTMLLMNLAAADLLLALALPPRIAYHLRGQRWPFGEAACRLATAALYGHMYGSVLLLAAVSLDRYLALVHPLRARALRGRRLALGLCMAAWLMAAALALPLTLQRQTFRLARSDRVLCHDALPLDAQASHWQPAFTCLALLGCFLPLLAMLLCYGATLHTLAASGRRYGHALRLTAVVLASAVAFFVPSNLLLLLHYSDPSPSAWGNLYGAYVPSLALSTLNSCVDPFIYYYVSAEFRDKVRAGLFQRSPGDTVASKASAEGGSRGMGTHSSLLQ
Chain of panel of 320 non-olfactory GPCRs (Homo sapiens, UniProt Q9NS75) (Q9NS75 whole entry): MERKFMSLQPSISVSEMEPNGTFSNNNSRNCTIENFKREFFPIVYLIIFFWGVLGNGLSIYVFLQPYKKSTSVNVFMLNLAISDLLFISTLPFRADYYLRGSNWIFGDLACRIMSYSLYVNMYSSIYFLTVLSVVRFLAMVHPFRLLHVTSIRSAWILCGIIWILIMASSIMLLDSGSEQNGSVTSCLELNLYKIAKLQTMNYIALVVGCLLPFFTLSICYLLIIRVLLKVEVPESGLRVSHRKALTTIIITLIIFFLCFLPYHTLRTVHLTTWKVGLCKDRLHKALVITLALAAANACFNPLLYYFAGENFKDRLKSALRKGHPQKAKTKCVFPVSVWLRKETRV
Chain of panel of 320 non-olfactory GPCRs (Homo sapiens, UniProt Q9UNW8) (Q9UNW8 whole entry): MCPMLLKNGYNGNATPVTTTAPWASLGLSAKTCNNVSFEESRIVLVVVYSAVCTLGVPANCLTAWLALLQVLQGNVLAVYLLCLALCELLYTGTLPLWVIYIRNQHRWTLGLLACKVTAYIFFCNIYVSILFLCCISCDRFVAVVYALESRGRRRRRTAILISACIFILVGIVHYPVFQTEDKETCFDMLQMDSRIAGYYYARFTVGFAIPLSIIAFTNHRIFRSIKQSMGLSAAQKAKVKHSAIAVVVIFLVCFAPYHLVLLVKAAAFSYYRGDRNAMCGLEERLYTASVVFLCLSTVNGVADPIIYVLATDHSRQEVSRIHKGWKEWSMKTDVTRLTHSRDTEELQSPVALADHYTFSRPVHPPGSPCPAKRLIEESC
Chain of panel of 320 non-olfactory GPCRs (Homo sapiens, UniProt P35408) (P35408 whole entry): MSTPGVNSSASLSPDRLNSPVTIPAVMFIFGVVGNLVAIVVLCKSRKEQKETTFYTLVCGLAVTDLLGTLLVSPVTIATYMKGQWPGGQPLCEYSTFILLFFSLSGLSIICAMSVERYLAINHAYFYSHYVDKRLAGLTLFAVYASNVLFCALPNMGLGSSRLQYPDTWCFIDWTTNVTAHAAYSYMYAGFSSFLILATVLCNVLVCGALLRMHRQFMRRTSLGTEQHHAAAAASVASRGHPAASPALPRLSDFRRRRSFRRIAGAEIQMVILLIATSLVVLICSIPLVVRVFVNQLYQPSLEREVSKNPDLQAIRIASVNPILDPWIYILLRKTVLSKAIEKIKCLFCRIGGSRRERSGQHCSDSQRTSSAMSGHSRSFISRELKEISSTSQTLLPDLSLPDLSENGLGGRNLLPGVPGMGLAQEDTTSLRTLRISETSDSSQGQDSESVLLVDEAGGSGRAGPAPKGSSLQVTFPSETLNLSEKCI
Chain of panel of 320 non-olfactory GPCRs (Homo sapiens, UniProt Q96P67) (Q96P67 whole entry): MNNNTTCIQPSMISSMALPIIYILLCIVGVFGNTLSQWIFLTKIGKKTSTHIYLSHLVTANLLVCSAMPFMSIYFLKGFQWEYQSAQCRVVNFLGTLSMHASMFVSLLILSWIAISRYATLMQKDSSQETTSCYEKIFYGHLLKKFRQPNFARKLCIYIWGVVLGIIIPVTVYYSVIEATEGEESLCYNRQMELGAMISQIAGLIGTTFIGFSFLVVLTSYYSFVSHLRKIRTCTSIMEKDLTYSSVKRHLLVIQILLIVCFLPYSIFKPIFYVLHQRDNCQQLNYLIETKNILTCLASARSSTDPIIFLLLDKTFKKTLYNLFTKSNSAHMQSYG
Chain of panel of 320 non-olfactory GPCRs (Homo sapiens, UniProt P41595) (P41595 whole entry): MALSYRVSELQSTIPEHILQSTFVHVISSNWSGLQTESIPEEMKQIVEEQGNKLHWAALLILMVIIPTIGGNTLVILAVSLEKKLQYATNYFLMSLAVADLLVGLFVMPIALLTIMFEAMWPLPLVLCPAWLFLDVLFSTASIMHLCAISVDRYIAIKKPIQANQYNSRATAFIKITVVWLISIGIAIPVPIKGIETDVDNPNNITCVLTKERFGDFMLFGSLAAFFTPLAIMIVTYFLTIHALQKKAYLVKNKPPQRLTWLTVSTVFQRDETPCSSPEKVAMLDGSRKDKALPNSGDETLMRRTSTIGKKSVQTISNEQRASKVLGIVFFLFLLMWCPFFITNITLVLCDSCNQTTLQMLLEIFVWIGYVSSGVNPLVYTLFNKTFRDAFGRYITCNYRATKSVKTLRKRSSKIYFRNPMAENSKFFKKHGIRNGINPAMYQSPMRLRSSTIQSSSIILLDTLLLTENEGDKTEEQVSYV
Chain of panel of 320 non-olfactory GPCRs (Homo sapiens, UniProt Q9NZD1) (Q9NZD1 whole entry): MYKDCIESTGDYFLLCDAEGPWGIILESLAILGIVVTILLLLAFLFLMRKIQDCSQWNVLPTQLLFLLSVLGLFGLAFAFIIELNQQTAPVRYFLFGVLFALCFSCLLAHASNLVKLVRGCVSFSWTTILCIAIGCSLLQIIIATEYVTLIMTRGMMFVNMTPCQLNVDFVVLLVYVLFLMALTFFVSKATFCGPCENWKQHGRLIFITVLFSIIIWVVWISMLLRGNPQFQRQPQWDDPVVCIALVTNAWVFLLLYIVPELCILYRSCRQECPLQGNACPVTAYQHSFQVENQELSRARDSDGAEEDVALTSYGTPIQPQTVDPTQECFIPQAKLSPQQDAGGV

| SMILES | Fold of Basal RLU [1] | Fold of Basal RLU [2] | Fold of Basal RLU [3] | Fold of Basal RLU [4] | Fold of Basal RLU [5] | Fold of Basal RLU [6] | Fold of Basal RLU [7] | Fold of Basal RLU [8] | Fold of Basal RLU [9] | Fold of Basal RLU [10] | Fold of Basal RLU [11] | Fold of Basal RLU [12] | Fold of Basal RLU [13] | Fold of Basal RLU [14] | Fold of Basal RLU [15] | Fold of Basal RLU [16] | Fold of Basal RLU [17] | Fold of Basal RLU [18] | Fold of Basal RLU [19] | Fold of Basal RLU [20] | other results |
| --- | --- | --- | --- | --- | --- | --- | --- | --- | --- | --- | --- | --- | --- | --- | --- | --- | --- | --- | --- | --- | --- |
| COC(=O)[C@@](C)(NC(=O)c1cc(C)n(-c2cccc(C(F)(F)F)c2)n1)c1cccs1 [‘1350] | 1.5 fold and 2.2 fold | 0.7 and 0.8 and 0.6 and 0.9 | 2.2 fold and 2.3 fold and 2.4 fold | 1.1 and 1 and 0.9 and 0.8 | 1 fold and 0.9 fold and 1.1 fold | 0.5 and 0.4 and 0.6 | 0.9 and 1.2 | 1.7 fold and 1.2 fold and 1.5 fold | 1 fold and 1.1 fold | 0.9 fold and 0.8 fold and 1 fold | 0.8 fold and 1 fold | 1.1 fold and 0.9 fold and 1.2 fold and 1.3 fold | 0.9 fold and 1 fold and 0.8 fold | 1.1 fold and 1.3 fold | 1.5 fold and 1.3 fold and 0.8 fold | 0.8 and 0.6 and 0.7 | 1.2 fold and 1 fold and 0.8 fold | 1.1 fold and 0.9 fold | 1.1 fold and 0.8 fold and 1.4 fold | 1.5 and 0.8 and 0.9 and 1.1 | agonist activity at GPR55, GPR18, GPR119 [21]: no agonist activity; off-target functional activity [21]: little activity was seen; Fold of Basal RLU [22]: 1.1 fold and 0.9 fold and 1 fold; Fold of Basal RLU [23]: 1.5 and 1.6 and 1; Fold of Basal RLU [24]: 0.9 and 1.4 and 1; Fold of Basal RLU [25]: 0.8 fold and 0.7 fold and 1 fold; Fold of Basal RLU [26]: 1.3 and 1.4 and 1.8; Fold of Basal RLU [27]: 1 fold and 1.1 fold and 1.4 fold and 1.3 fold; Fold of Basal RLU [28]: 1.5 fold and 1 fold and 1.1 fold; Fold of Basal RLU [29]: 0.8 and 1 and 0.6; Fold of Basal RLU [30]: 1 and 0.7 and 0.9 and 0.8; Fold of Basal RLU [31]: 1.1 fold and 0.8 fold and 1 fold; Fold of Basal RLU [32]: 1.2 fold and 1.1 fold and 1 fold; Fold of Basal RLU [33]: 0.9 fold and 0.6 fold and 0.8 fold; Fold of Basal RLU [34]: 1.3 and 0.9 and 1.1 and 0.7; Fold of Basal RLU [35]: 1.2 and 1.1 and 1.5; Fold of Basal RLU [36]: 1.1 and 1 and 0.6 and 0.8; Fold of Basal RLU [37]: 2.1 and 1.2 and 1.1 |
| Cc1cc(C(=O)NC(C)(c2ccco2)c2ccco2)nn1-c1cccc(C(F)(F)F)c1 [‘4936] | 2.1 fold and 2.3 fold | 0.7 and 0.6 and 0.9 | 2.7 fold and 3.1 fold and 3.2 fold | 0.9 and 0.7 | 1 fold and 1.4 fold and 0.9 fold | 1.1 and 1.3 and 1.4 | 1.3 and 1.4 and 1.2 and 1.1 | 1.2 fold and 0.9 fold and 1 fold and 1.3 fold | 1 fold and 0.9 fold | 1.1 fold and 1 fold | 1.2 fold and 0.9 fold | 0.9 fold and 1.3 fold and 1.6 fold | 1.1 fold and 1.3 fold and 0.9 fold and 1.2 fold | 2.1 fold and 2.4 fold and 1.6 fold and 2.5 fold | 1.4 fold and 2.1 fold and 1.5 fold and 1.8 fold | 1.1 and 1.2 and 0.9 and 0.8 | 0.8 fold and 0.9 fold and 0.6 fold | 1 fold and 1.2 fold and 0.6 fold | 1.7 fold and 1.9 fold and 1.4 fold and 2.5 fold | 0.6 and 0.4 and 0.5 | agonist activity at GPR55, GPR18, GPR119 [21]: no agonist activity; off-target functional activity [21]: except for ‘4936 against ADORA-1; Fold of Basal RLU [22]: 0.9 fold and 1 fold and 0.8 fold; Fold of Basal RLU [23]: 1.2 and 1 and 0.8 and 0.9; Fold of Basal RLU [24]: 0.9 and 0.8 and 1; Fold of Basal RLU [25]: 1.1 fold and 1.6 fold and 2 fold; Fold of Basal RLU [26]: 1.5 and 1.7 and 1.4 and 2.3; Fold of Basal RLU [27]: 1 fold and 1.1 fold and 1.4 fold; Fold of Basal RLU [28]: 1.6 fold and 1.2 fold and 0.9 fold and 1 fold; Fold of Basal RLU [29]: 0.9 and 1.2 and 1.1 and 1.7; Fold of Basal RLU [30]: 0.9 and 0.8 and 1 and 1.1; Fold of Basal RLU [31]: 1.3 fold and 1 fold and 1.2 fold and 1.1 fold; Fold of Basal RLU [32]: 1.1 fold and 1.2 fold; Fold of Basal RLU [33]: 0.8 fold and 0.9 fold and 0.7 fold and 0.6 fold; Fold of Basal RLU [34]: 1.5 and 0.9; Fold of Basal RLU [35]: 0.8 and 1.3 and 1.4; Fold of Basal RLU [36]: 0.8 and 0.6 and 0.9; Fold of Basal RLU [37]: 2.2 and 2.3 and 1.6 and 3.1 |
